Reference: US8614327B2 (Vertex Pharmaceuticals Incorporated, priority 2004, dated 2013)

Molecular target: T1, ΔF508-CFTR (Homo sapiens, UniProt P13569, DEL508-508)
T1 construct: expressed in transfected cells
Test: Membrane potential optical (FRET/VIPR) assay, identification of potentiator compounds
Type: cell-based
Conditions: Table 3, assay not given; for % Activity: relative efficacy
Method in brief: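 Double-addition potentiator screen: compound delivered in gluconate-substituted Cl^--free medium, membrane potential followed via CC2-DMPE/DiSBAC2(3) FRET on VIPR. Cells were ΔF508-CFTR-expressing NIH3T3 mouse fibroblasts, held 2 h at 37° C. then 24 h at 27° C. before assay.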

T1 sequence (P13569 with tags, fused parts or gaps DEL508-508): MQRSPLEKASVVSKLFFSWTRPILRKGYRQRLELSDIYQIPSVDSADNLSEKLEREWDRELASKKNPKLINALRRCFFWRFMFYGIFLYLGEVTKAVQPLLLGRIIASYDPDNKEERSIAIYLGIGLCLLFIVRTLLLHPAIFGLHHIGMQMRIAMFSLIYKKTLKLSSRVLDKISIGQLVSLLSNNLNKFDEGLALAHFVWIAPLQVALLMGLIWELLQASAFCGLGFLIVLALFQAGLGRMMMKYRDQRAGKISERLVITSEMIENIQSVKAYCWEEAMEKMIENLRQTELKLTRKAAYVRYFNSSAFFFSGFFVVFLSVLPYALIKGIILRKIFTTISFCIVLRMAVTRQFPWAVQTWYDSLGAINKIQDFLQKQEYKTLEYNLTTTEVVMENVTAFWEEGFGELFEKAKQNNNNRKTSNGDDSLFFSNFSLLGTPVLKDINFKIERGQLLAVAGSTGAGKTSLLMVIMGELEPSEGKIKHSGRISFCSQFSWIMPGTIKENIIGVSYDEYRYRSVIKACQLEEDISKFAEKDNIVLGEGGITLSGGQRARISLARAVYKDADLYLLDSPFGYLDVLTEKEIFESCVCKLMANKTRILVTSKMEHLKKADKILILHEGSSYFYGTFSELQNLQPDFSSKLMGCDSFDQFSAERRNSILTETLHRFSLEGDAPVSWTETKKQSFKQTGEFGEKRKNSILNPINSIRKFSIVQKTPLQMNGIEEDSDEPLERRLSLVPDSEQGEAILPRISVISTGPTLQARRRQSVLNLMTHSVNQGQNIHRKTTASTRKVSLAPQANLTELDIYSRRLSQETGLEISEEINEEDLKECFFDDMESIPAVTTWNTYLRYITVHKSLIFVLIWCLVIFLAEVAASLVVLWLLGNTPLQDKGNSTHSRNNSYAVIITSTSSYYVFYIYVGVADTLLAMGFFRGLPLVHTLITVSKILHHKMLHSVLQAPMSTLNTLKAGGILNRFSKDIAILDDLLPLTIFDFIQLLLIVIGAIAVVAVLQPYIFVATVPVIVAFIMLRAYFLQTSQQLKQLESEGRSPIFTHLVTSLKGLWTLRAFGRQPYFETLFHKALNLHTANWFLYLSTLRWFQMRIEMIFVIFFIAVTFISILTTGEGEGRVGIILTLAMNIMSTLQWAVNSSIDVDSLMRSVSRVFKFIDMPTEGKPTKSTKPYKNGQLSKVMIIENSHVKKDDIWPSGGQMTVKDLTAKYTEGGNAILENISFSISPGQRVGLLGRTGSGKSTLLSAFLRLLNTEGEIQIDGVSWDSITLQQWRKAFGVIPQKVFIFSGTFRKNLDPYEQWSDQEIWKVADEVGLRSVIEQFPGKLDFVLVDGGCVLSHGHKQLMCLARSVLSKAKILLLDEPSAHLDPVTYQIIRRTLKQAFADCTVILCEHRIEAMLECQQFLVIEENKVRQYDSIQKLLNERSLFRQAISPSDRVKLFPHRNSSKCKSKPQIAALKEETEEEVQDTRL

EC50 | % Activity | SMILES
< 10 µM | ++ (between 25% to 100%) | CC(C)c1ccc(N)cc1NC(=O)c1c[nH]c2ccccc2c1=O [Compound 101, N-(5-amino-2-isopropyl-phenyl)-4-oxo-1H-quinoline-3-carboxamide]
10 to 25 µM | ++ (between 25% to 100%) | O=C(Nc1ccccc1-c1nc(-c2ccc(Cl)cc2)no1)c1c[nH]c2ccccc2c1=O [Compound 102, N-[2-[3-(4-chlorophenyl)-1,2,4-oxadiazol-5-yl]phenyl]-4-oxo-1H-quinoline-3-carboxamide]
< 10 µM | +++ (>100%) | CC(C)(C)c1cc(C(C)(C)C)c(NC(=O)c2c[nH]c3ccc(F)cc3c2=O)cc1O [Compound 103, 6-fluoro-N-(5-hydroxy-2,4-ditert-butyl-phenyl)-4-oxo-1H-quinoline-3-carboxamide]
< 10 µM | ++ (between 25% to 100%) | Cc1cc2ccc(NC(=O)c3c[nH]c4ccccc4c3=O)cc2[nH]1 [Compound 104, N-(2-methyl-1H-indol-6-yl)-4-oxo-1H-quinoline-3-carboxamide]
10 to 25 µM | ++ (between 25% to 100%) | O=C(Nc1ccc2c(c1)NCCO2)c1c[nH]c2ccccc2c1=O [Compound 105, 1,4-dihydro-N-(3,4-dihydro-2H-benzo[b][1,4]oxazin-6-yl)-4-oxoquinoline-3-carboxamide]
25 to 60 µM | + (<25%) | COc1cc(C#N)c(NC(=O)c2c[nH]c3ccccc3c2=O)cc1OC [Compound 106, N-(2-cyano-4,5-dimethoxy-phenyl)-4-oxo-1H-quinoline-3-carboxamide]
10 to 25 µM | ++ (between 25% to 100%) | CC(C)(C)OC(=O)N1CCc2ccc(NC(=O)c3c[nH]c4ccccc4c3=O)cc2C1 [Compound 107, 7-[(4-oxo-1H-quinolin-3-yl)carbonylamino]-1,2,3,4-tetrahydroisoquinoline-2-carboxylic acid tert-butyl ester]
< 10 µM | ++ (between 25% to 100%) | CC(C)(C)OC(=O)N1CCC(C)(C)c2ccc(NC(=O)c3c[nH]c4ccccc4c3=O)cc21 [Compound 108, 4,4-dimethyl-7-[(4-oxo-1H-quinolin-3-yl)carbonylamino]-1,2,3,4-tetrahydroquinoline-1-carboxylic acid tert-butyl ester]
 | ++ (between 25% to 100%) | CC(=O)N1CCCC(C)(C)c2ccc(NC(=O)c3c[nH]c4ccccc4c3=O)cc21 [Compound 109, N-(1-acetyl-2,3,4,5-tetrahydro-5,5-dimethyl-1H-benzo[b]azepin-8-yl)-1,4-dihydro-4-oxoquinoline-3-carboxamide]
25 to 60 µM | + (<25%) | N#CCc1ccc(NC(=O)c2c[nH]c3ccccc3c2=O)cc1 [Compound 110, N-[4-(cyanomethyl)phenyl]-4-oxo-1H-quinoline-3-carboxamide]
< 10 µM | ++ (between 25% to 100%) | O=C(Nc1ccccc1C(F)(F)F)c1c[nH]c2ccccc2c1=O [Compound 111, 4-oxo-N-[2-(trifluoromethyl)phenyl]-1H-quinoline-3-carboxamide]
< 10 µM | ++ (between 25% to 100%) | CCOc1ccc2ncc(C(=O)Nc3ccc4cc[nH]c4c3)c(O)c2c1 [Compound 112, 6-ethoxy-4-hydroxy-N-(1H-indol-6-yl)quinoline-3-carboxamide]
< 10 µM | ++ (between 25% to 100%) | Cc1c[nH]c2cc(NC(=O)c3c[nH]c4ccccc4c3=O)ccc12 [Compound 113, N-(3-methyl-1H-indol-6-yl)-4-oxo-1H-quinoline-3-carboxamide]
< 10 µM | ++ (between 25% to 100%) | CCOc1ccccc1-c1ccc(NC(=O)OC(C)(C)C)cc1NC(=O)c1c[nH]c2ccccc2c1=O [Compound 114, [4-(2-ethoxyphenyl)-3-[(4-oxo-1H-quinolin-3-yl)carbonylamino]phenyl]aminoformic acid tert-butyl ester]
< 10 µM | ++ (between 25% to 100%) | O=C(Nc1ccccc1-c1ccco1)c1c[nH]c2ccccc2c1=O [Compound 115, N-[2-(2-furyl)phenyl]-4-oxo-1H-quinoline-3-carboxamide]
< 10 µM | ++ (between 25% to 100%) | O=C(Nc1ccc2cc[nH]c2c1)c1c[nH]c2cccc(O)c2c1=O [Compound 116, 5-hydroxy-N-(1H-indol-6-yl)-4-oxo-1H-quinoline-3-carboxamide]
< 10 µM | ++ (between 25% to 100%) | CC(C)c1ccc(NC(=O)c2c[nH]c3ccccc3c2=O)cc1N(C)C [Compound 117, N-(3-dimethylamino-4-isopropyl-phenyl)-4-oxo-1H-quinoline-3-carboxamide]
 | ++ (between 25% to 100%) | O=C(Nc1ccccc1-c1ccc2[nH]ccc2c1)c1c[nH]c2ccccc2c1=O [Compound 118, N-[2-(1H-indol-5-yl)phenyl]-4-oxo-1H-quinoline-3-carboxamide]

EC50 | % Activity | SMILES
< 10 µM | ++ (between 25% to 100%) | CCOC(=O)NCC(C)(C)c1ccc(NC(=O)c2c[nH]c3ccccc3c2=O)cc1 [Compound 119, [2-methyl-2-[4-[(4-oxo-1H-quinolin-3-yl)carbonylamino]phenyl]-propyl]aminoformic acid ethyl ester]
10 to 25 µM | ++ (between 25% to 100%) | COc1ccc(C)cc1NC(=O)c1c[nH]c2ccccc2c1=O [Compound 120, N-(2-methoxy-5-methyl-phenyl)-4-oxo-1H-quinoline-3-carboxamide]
25 to 60 µM | + (<25%) | COc1ccc(NC(=O)c2c[nH]c3ccccc3c2=O)cc1OC [Compound 122, N-(3,4-dimethoxyphenyl)-4-oxo-1H-quinoline-3-carboxamide]
 | ++ (between 25% to 100%) | O=C(Nc1ccccc1-c1ccoc1)c1c[nH]c2ccccc2c1=O [Compound 123, N-[2-(3-furyl)phenyl]-4-oxo-1H-quinoline-3-carboxamide]
< 10 µM | +++ (>100%) | CC(C)(C)c1cc2cc[nH]c2cc1NC(=O)c1c[nH]c2ccc(F)cc2c1=O [Compound 124, 6-fluoro-4-oxo-N-(5-tert-butyl-1H-indol-6-yl)-1H-quinoline-3-carboxamide]
10 to 25 µM | ++ (between 25% to 100%) | CCc1cccc(NC(=O)c2c[nH]c3ccccc3c2=O)n1 [Compound 125, N-(6-ethyl-2-pyridyl)-4-oxo-1H-quinoline-3-carboxamide]
< 10 µM | ++ (between 25% to 100%) | COCCOCC(C)(C)c1ccc(NC(=O)c2c[nH]c3ccccc3c2=O)cc1O [Compound 126, N-[3-hydroxy-4-[2-(2-methoxyethoxy)-1,1-dimethyl-ethyl]-phenyl]-4-oxo-1H-quinoline-3-carboxamide]
< 10 µM | ++ (between 25% to 100%) | CCOC(=O)Nc1cc(NC(=O)c2c[nH]c3ccccc3c2=O)ccc1C(C)(C)C [Compound 127, [5-[(4-oxo-1H-quinolin-3-yl)carbonylamino]-2-tert-butyl-phenyl]aminoformic acid ethyl ester]
25 to 60 µM | + (<25%) | Cc1ccc2c(c1)c(=O)c(C(=O)Nc1ccccc1-c1ccccc1)cn2C [Compound 128, 1,6-dimethyl-4-oxo-N-(2-phenylphenyl)-1H-quinoline-3-carboxamide]
10 to 25 µM | ++ (between 25% to 100%) | CCc1ccc(NC(=O)c2c[nH]c3ccccc3c2=O)cc1NC(=O)OC [Compound 129, [2-ethyl-5-[(4-oxo-1H-quinolin-3-yl)carbonylamino]phenyl]aminoformic acid methyl ester]
< 10 µM | ++ (between 25% to 100%) | O=C(Nc1ccc2cc[nH]c2c1)c1cnc2cc(C(F)(F)F)cc(C(F)(F)F)c2c1O [Compound 130, 4-hydroxy-N-(1H-indol-6-yl)-5,7-bis(trifluoromethyl)quinoline-3-carboxamide]
 | ++ (between 25% to 100%) | Nc1cc(Cl)cc(NC(=O)c2c[nH]c3ccccc3c2=O)c1 [Compound 131, N-(3-amino-5-chloro-phenyl)-4-oxo-1H-quinoline-3-carboxamide]
25 to 60 µM | + (<25%) | CCOc1ccc(NC(C)=O)cc1NC(=O)c1c[nH]c2ccccc2c1=O [Compound 132, N-(5-acetylamino-2-ethoxy-phenyl)-4-oxo-1H-quinoline-3-carboxamide]
10 to 25 µM | ++ (between 25% to 100%) | O=C(Nc1cc(Cl)cc(NS(=O)(=O)CCN2CCCCC2)c1)c1c[nH]c2ccccc2c1=O [Compound 133, N-[3-chloro-5-[2-(1-piperidyl)ethylsulfonylamino]phenyl]-4-oxo-1H-quinoline-3-carboxamide]
< 10 µM | ++ (between 25% to 100%) | C[S+]([O-])c1ccc(-c2ccccc2NC(=O)c2c[nH]c3ccccc3c2=O)cc1 (centres unmarked) [Compound 134, N-[2-(4-methylsulfinylphenyl)phenyl]-4-oxo-1H-quinoline-3-carboxamide]
< 10 µM | +++ (>100%) | O=C(Nc1ccccc1-c1ccc2c(c1)OCO2)c1c[nH]c2ccccc2c1=O [Compound 135, N-(2-benzo[1,3]dioxol-5-ylphenyl)-4-oxo-1H-quinoline-3-carboxamide]
< 10 µM | ++ (between 25% to 100%) | CC(C)(C)c1cc(NC(=O)c2c[nH]c3ccccc3c2=O)c(O)c(C(C)(C)C)c1 [Compound 136, N-(2-hydroxy-3,5-ditert-butyl-phenyl)-4-oxo-1H-quinoline-3-carboxamide]
< 10 µM | ++ (between 25% to 100%) | CN(c1ccc(F)cc1)S(=O)(=O)c1ccc2[nH]cc(C(=O)Nc3cc(O)c(C(C)(C)C)cc3C(C)(C)C)c(=O)c2c1 [Compound 137, 6-[(4-fluorophenyl)-methyl-sulfamoyl]-N-(5-hydroxy-2,4-ditert-butyl-phenyl)-4-oxo-1H-quinoline-3-carboxamide]
